Laboratory results reported in paper PMC9276671, “A first-in-human Phase I dose-escalation trial of the novel therapeutic peptide, ALM201, demonstrates a favourable safety profile in unselected patients with ovarian cancer and other advanced solid tumours” (British Journal of Cancer, 2022).
No end group written: not given here.

Assay: Plasma pharmacokinetics of ALM201 in Phase I patients (validated LC-MS/MS, Phoenix WinNonlin)
Conditions: for AUC(0-t): AUC0-t; for AUC(0-t) / Cmax: Gmean (CV); for level at 0.25 h: day 1 cycle 1, 0.25 h after dosing; for level at 0.75 h: day 1 cycle 1, 0.75 h after dosing; for Tmax: median
[1] = cycle 1, excluding patient 03.012
[2] = human, plasma, sc, 10 mg, 10 mg SC, day 1 cycle 1, n = 1, plasma LC-MS/MS
[3] = human, plasma, sc, 10 mg, 10 mg SC, day 3 cycle 1, n = 1, plasma LC-MS/MS
[4] = human, plasma, sc, 10 mg, 10 mg SC, day 18 cycle 1, n = 1, plasma LC-MS/MS
[5] = human, plasma, sc, 10 mg, 10 mg SC, day 18 cycle 2, n = 1, plasma LC-MS/MS
[6] = human, plasma, sc, 10 mg, 10 mg SC, day 18 cycle 4, n = 1, plasma LC-MS/MS
[7] = human, plasma, sc, 10 mg, 10 mg SC, day 18 cycle 6, n = 1, plasma LC-MS/MS
[8] = human, plasma, sc, 10 mg, Plasma concentration, geometric mean (CV%), 10 mg SC, n = 1, LC-MS/MS
[9] = human, plasma, sc, 20 mg, 20 mg SC, day 1 cycle 1, n = 1, plasma LC-MS/MS
[10] = human, plasma, sc, 20 mg, 20 mg SC, day 3 cycle 1, n = 1, plasma LC-MS/MS
[11] = human, plasma, sc, 20 mg, 20 mg SC, day 18 cycle 1, n = 1, plasma LC-MS/MS
[12] = human, plasma, sc, 20 mg, 20 mg SC, day 18 cycle 2, n = 1, plasma LC-MS/MS
[13] = human, plasma, sc, 20 mg, Plasma concentration, geometric mean (CV%), 20 mg SC, n = 1, LC-MS/MS

IRQQPRDPPTETLELEVSPDPAS [ALM201]
Plasma concentration, geometric mean (CV%) (10 mg SC, day 1 cycle 1, 4 h after dosing, n = 1, LC-MS/MS): NQ (not quantifiable (less than assay limit of quantification of 100 ng/mL))
Plasma concentration, geometric mean (CV%) (10 mg SC, day 1 cycle 1, 5 h after dosing, n = 1, LC-MS/MS): NQ (not quantifiable (less than assay limit of quantification of 100 ng/mL))
Plasma concentration, geometric mean (CV%) (10 mg SC, day 1 cycle 1, 6 h after dosing, n = 1, LC-MS/MS): NQ (not quantifiable (less than assay limit of quantification of 100 ng/mL))
Plasma concentration, geometric mean (CV%) (10 mg SC, day 1 cycle 1, 22 h after dosing, n = 1, LC-MS/MS): NQ (not quantifiable (less than assay limit of quantification of 100 ng/mL))
Plasma concentration, geometric mean (CV%) (10 mg SC, day 3 cycle 1, 5 h after dosing, n = 1, LC-MS/MS): NQ (not quantifiable (less than assay limit of quantification of 100 ng/mL))
Plasma concentration, geometric mean (CV%) (10 mg SC, day 18 cycle 1, 5 h after dosing, n = 1, LC-MS/MS): NQ (not quantifiable (less than assay limit of quantification of 100 ng/mL))
Plasma concentration, geometric mean (CV%) (20 mg SC, day 1 cycle 1, 4 h after dosing, n = 1, LC-MS/MS): NQ (not quantifiable (less than assay limit of quantification of 100 ng/mL))
Plasma concentration, geometric mean (CV%) (20 mg SC, day 1 cycle 1, 5 h after dosing, n = 1, LC-MS/MS): NQ (not quantifiable (less than assay limit of quantification of 100 ng/mL))
Plasma concentration, geometric mean (CV%) (20 mg SC, day 1 cycle 1, 6 h after dosing, n = 1, LC-MS/MS): NQ (not quantifiable (less than assay limit of quantification of 100 ng/mL))
Plasma concentration, geometric mean (CV%) (20 mg SC, day 1 cycle 1, 22 h after dosing, n = 1, LC-MS/MS): NQ (not quantifiable (less than assay limit of quantification of 100 ng/mL))
Plasma concentration, geometric mean (CV%) (20 mg SC, day 3 cycle 1, 5 h after dosing, n = 1, LC-MS/MS): NQ (not quantifiable (less than assay limit of quantification of 100 ng/mL))
Plasma concentration, geometric mean (CV%) (20 mg SC, day 18 cycle 1, 5 h after dosing, n = 1, LC-MS/MS): NQ (not quantifiable (less than assay limit of quantification of 100 ng/mL))
Tmax, median (20 mg SC, day 18 cycle 2, n = 1, plasma LC-MS/MS): 1 h
Plasma concentration, geometric mean (CV%) (40 mg SC, day 1 cycle 1, 6 h after dosing, n = 1, LC-MS/MS): NQ (not quantifiable (less than assay limit of quantification of 100 ng/mL))
Plasma concentration, geometric mean (CV%) (40 mg SC, day 1 cycle 1, 22 h after dosing, n = 1, LC-MS/MS): NQ (not quantifiable (less than assay limit of quantification of 100 ng/mL))
Cmax, Gmean (CV) (40 mg SC, day 18 cycle 2, n = 1, plasma LC-MS/MS): 583 ng/mL
Plasma concentration, geometric mean (CV%) (80 mg SC, day 1 cycle 1, 22 h after dosing, n = 3, LC-MS/MS): NQ (not quantifiable (less than assay limit of quantification of 100 ng/mL))
Tmax, median (80 mg SC, day 3 cycle 1, n = 3, plasma LC-MS/MS): 1.5 h
Plasma concentration, geometric mean (CV%) (100 mg SC, day 1 cycle 1, 22 h after dosing, n = 4, LC-MS/MS): NQ (not quantifiable (less than assay limit of quantification of 100 ng/mL))
Plasma concentration, geometric mean (CV%) (160 mg SC, day 1 cycle 1, 22 h after dosing, n = 3, LC-MS/MS): NQ (not quantifiable (less than assay limit of quantification of 100 ng/mL))
Tmax, median (160 mg SC, day 3 cycle 1, n = 3, plasma LC-MS/MS): 1.52 h
Tmax, median (160 mg SC, day 18 cycle 1, n = 3, plasma LC-MS/MS): 1.5 h
Plasma concentration, geometric mean (CV%) (200 mg SC, day 1 cycle 1, 22 h after dosing, n = 4, LC-MS/MS): NQ (not quantifiable (less than assay limit of quantification of 100 ng/mL))
AUC0-t, Gmean (CV) (200 mg SC, day 18 cycle 2, n = 2, CV not calculated, plasma LC-MS/MS): 5680 ng·h/mL
Plasma concentration, geometric mean (CV%) (300 mg SC, day 1 cycle 1, 22 h after dosing, n = 3, LC-MS/MS): NQ (not quantifiable (less than assay limit of quantification of 100 ng/mL))
AUC0-t, Gmean (CV) (300 mg SC, day 18 cycle 1, n = 3, plasma LC-MS/MS): 12,100 (6) ng.h/mL
Tmax, median (300 mg SC, day 18 cycle 2, n = 3, plasma LC-MS/MS): 2 h
Day 18:day 1 AUC0-t ratio, mean ± SD (cycle 1, all patients): 1.27 ± 1.32
Day 18:day 1 Cmax ratio, mean ± SD (cycle 1, all patients): 1.25 ± 0.97
Day 18:day 1 AUC0-t ratio, mean ± SD [1]: 0.95 ± 0.26
Day 18:day 1 Cmax ratio, mean ± SD [1]: 1.03 ± 0.39
Half-life (human, plasma, sc): ~1.5 h
AUC(0-t) [2]: 485 ng·h/mL
AUC(0-t) [3]: 868 ng·h/mL
AUC(0-t) [4]: 817 ng·h/mL
AUC(0-t) [5]: 702 ng·h/mL
AUC(0-t) [6]: 476 ng·h/mL
AUC(0-t) [7]: 1040 ng·h/mL
Cmax [2]: 200 ng/mL
Cmax [3]: 406 ng/mL
Cmax [4]: 352 ng/mL
Cmax [5]: 288 ng/mL
Cmax [6]: 193 ng/mL
Cmax [7]: 470 ng/mL
level at 0.25 h [8]: 106 ng/mL
level at 0.75 h [8]: 150 ng/mL
level at 1.5 h (human, plasma, sc, 10 mg, Plasma concentration, geometric mean (CV%), 10 mg SC, day 1 cycle 1, 1.5 h after dosing, n = 1, LC-MS/MS): 200 ng/mL
level at 2 h (human, plasma, sc, 10 mg, Plasma concentration, geometric mean (CV%), 10 mg SC, day 1 cycle 1, 2 h after dosing, n = 1, LC-MS/MS): 199 ng/mL
level at 3 h (human, plasma, sc, 10 mg, Plasma concentration, geometric mean (CV%), 10 mg SC, day 1 cycle 1, 3 h after dosing, n = 1, LC-MS/MS): 153 ng/mL
level at 0.5 h (human, plasma, sc, 10 mg, Plasma concentration, geometric mean (CV%), 10 mg SC, day 3 cycle 1, 0.5 h after dosing, n = 1, LC-MS/MS): 406 ng/mL
level at 1 h (human, plasma, sc, 10 mg, Plasma concentration, geometric mean (CV%), 10 mg SC, day 3 cycle 1, 1 h after dosing, n = 1, LC-MS/MS): 325 ng/mL
level at 1.5 h (human, plasma, sc, 10 mg, Plasma concentration, geometric mean (CV%), 10 mg SC, day 3 cycle 1, 1.5 h after dosing, n = 1, LC-MS/MS): 294 ng/mL
level at 2 h (human, plasma, sc, 10 mg, Plasma concentration, geometric mean (CV%), 10 mg SC, day 3 cycle 1, 2 h after dosing, n = 1, LC-MS/MS): 242 ng/mL
level at 3.5 h (human, plasma, sc, 10 mg, Plasma concentration, geometric mean (CV%), 10 mg SC, day 3 cycle 1, 3.5 h after dosing, n = 1, LC-MS/MS): 127 ng/mL
level at 0.5 h (human, plasma, sc, 10 mg, Plasma concentration, geometric mean (CV%), 10 mg SC, day 18 cycle 1, 0.5 h after dosing, n = 1, LC-MS/MS): 188 ng/mL
level at 1 h (human, plasma, sc, 10 mg, Plasma concentration, geometric mean (CV%), 10 mg SC, day 18 cycle 1, 1 h after dosing, n = 1, LC-MS/MS): 283 ng/mL
level at 1.5 h (human, plasma, sc, 10 mg, Plasma concentration, geometric mean (CV%), 10 mg SC, day 18 cycle 1, 1.5 h after dosing, n = 1, LC-MS/MS): 352 ng/mL
level at 2 h (human, plasma, sc, 10 mg, Plasma concentration, geometric mean (CV%), 10 mg SC, day 18 cycle 1, 2 h after dosing, n = 1, LC-MS/MS): 325 ng/mL
level at 3.5 h (human, plasma, sc, 10 mg, Plasma concentration, geometric mean (CV%), 10 mg SC, day 18 cycle 1, 3.5 h after dosing, n = 1, LC-MS/MS): 113 ng/mL
level at 0.5 h (human, plasma, sc, 10 mg, Plasma concentration, geometric mean (CV%), 10 mg SC, day 18 cycle 2, 0.5 h after dosing, n = 1, LC-MS/MS): 158 ng/mL
level at 1 h (human, plasma, sc, 10 mg, Plasma concentration, geometric mean (CV%), 10 mg SC, day 18 cycle 2, 1 h after dosing, n = 1, LC-MS/MS): 193 ng/mL
level at 1.5 h (human, plasma, sc, 10 mg, Plasma concentration, geometric mean (CV%), 10 mg SC, day 18 cycle 2, 1.5 h after dosing, n = 1, LC-MS/MS): 242 ng/mL
level at 2 h (human, plasma, sc, 10 mg, Plasma concentration, geometric mean (CV%), 10 mg SC, day 18 cycle 2, 2 h after dosing, n = 1, LC-MS/MS): 288 ng/mL
level at 3.5 h (human, plasma, sc, 10 mg, Plasma concentration, geometric mean (CV%), 10 mg SC, day 18 cycle 2, 3.5 h after dosing, n = 1, LC-MS/MS): 161 ng/mL
level at 1 h (human, plasma, sc, 10 mg, Plasma concentration, geometric mean (CV%), 10 mg SC, day 18 cycle 4, 1 h after dosing, n = 1, LC-MS/MS): 176 ng/mL
level at 1.5 h (human, plasma, sc, 10 mg, Plasma concentration, geometric mean (CV%), 10 mg SC, day 18 cycle 4, 1.5 h after dosing, n = 1, LC-MS/MS): 193 ng/mL
level at 2 h (human, plasma, sc, 10 mg, Plasma concentration, geometric mean (CV%), 10 mg SC, day 18 cycle 4, 2 h after dosing, n = 1, LC-MS/MS): 171 ng/mL
level at 3.5 h (human, plasma, sc, 10 mg, Plasma concentration, geometric mean (CV%), 10 mg SC, day 18 cycle 4, 3.5 h after dosing, n = 1, LC-MS/MS): 157 ng/mL
level at 0.5 h (human, plasma, sc, 10 mg, Plasma concentration, geometric mean (CV%), 10 mg SC, day 18 cycle 6, 0.5 h after dosing, n = 1, LC-MS/MS): 171 ng/mL
level at 1.5 h (human, plasma, sc, 10 mg, Plasma concentration, geometric mean (CV%), 10 mg SC, day 18 cycle 6, 1.5 h after dosing, n = 1, LC-MS/MS): 470 ng/mL
level at 2 h (human, plasma, sc, 10 mg, Plasma concentration, geometric mean (CV%), 10 mg SC, day 18 cycle 6, 2 h after dosing, n = 1, LC-MS/MS): 403 ng/mL
level at 3.5 h (human, plasma, sc, 10 mg, Plasma concentration, geometric mean (CV%), 10 mg SC, day 18 cycle 6, 3.5 h after dosing, n = 1, LC-MS/MS): 179 ng/mL
Tmax [2]: 1.45 h
Tmax [3]: 0.5 h
Tmax [4]: 1.58 h
Tmax [5]: 2 h
Tmax [6]: 1.53 h
Tmax [7]: 1.85 h
AUC(0-t) [9]: 1040 ng·h/mL
AUC(0-t) [10]: 1160 ng·h/mL
AUC(0-t) [11]: 718 ng·h/mL
AUC(0-t) [12]: 1020 ng·h/mL
Cmax [9]: 542 ng/mL
Cmax [10]: 614 ng/mL
Cmax [11]: 319 ng/mL
Cmax [12]: 394 ng/mL
level at 0.25 h [13]: 136 ng/mL
level at 0.75 h [13]: 368 ng/mL
